According to patent publication US8598355B2, “Amide compound” (Astellas Pharma Inc., priority 2008, dated 2013):

Columns and labels:
rat EP4 receptor = rat EP4 receptor (Rattus norvegicus, UniProt P43114); test: Evaluation test of rat EP4 receptor affinity ([3H]PGE2 binding, membrane fraction of HEK293 cells expressing rat EP4); parameters: expressed in transfected cells; host or cells: HEK293 cells, transient transfection with Lipofectamine 2000; membrane fraction; conditions: [3H]PGE2 0.3 nM
Protocol: Evaluation Test of Rat EP4 Receptor Affinity
Cell Culturing and Transfection
Using a 10 cm collagen-coated dish (Asahi Glass), HEK293 cells were cultured in D-MEM culture medium, the culture medium was removed at a confluence (90 to 100% density state) and washed with a phosphate buffer saline (PBS), and then the cells were detached with N,N,N′,N′-tetrakis(carboxymethyl)ethylenediamine (EDTA). The number of the cells were counted and seeded on a 15 cm collagen-coated dish to a confluence of 70%. On the next day, to an Opti-MEM culture medium at 1.2 mL/dish was added Lipofectamine 2000 (Invitrogen) at 60 μL/dish, followed by leaving to stand at room temperature for 5 minutes. A plasmid in which rat EP4 (Sequence Number 1) had been inserted into a TA cloning site of pcDNA3.1-V5-His-topo was added thereto at 15 μg/dish. After leaving to stand at room temperature for 30 minutes, the resultant was added to the dish and cultured for 20 to 24 hours. The cell culture was carried out in a CO2 incubator (37° C., 5% CO2).
Preparation of Membrane Fraction
The culture medium was removed by suction, 10 mL of cooled PBS was added thereto per 15 cm dish, and the cells were scraped using a cell scraper (Sumitomo Bakelite). They were washed with cooled PBS (1,200 rpm, 4° C., 5 min), and then suspended in 6 mL of cooled 20 mM Tris-HCl (pH 7.4; Nakalai Tesque Inc., including 5 mM EDTA (Nakalai Tesque Inc.) per dish and the resultant was homogenized using a Polytron and the homogenate was centrifuged (26,000 rpm, 20 min, 4° C.). The obtained precipitate was resuspended in cooled 20 mM Tris-HCl and homogenized again using a Polytron, and the homogenate was centrifuged (26,000 rpm, 20 min, 4° C.). The obtained precipitate was resuspended in 50 mM HEPES (pH 7.5; Dojindo Laboratories) at 1 mL per dish, homogenized using a Polytron, and freeze-stored at −80° C. as a membrane fraction. At this time, a part thereof was used for the measurement of the protein concentration. Measurement of the protein concentration was carried out in duplicate using a Bio-Rad Protein assay kit (Bio-Rad Laboratories) in accordance with the appended standard Protocol.
[^3H]PGE2 50 μL (final concentration 0.3 nM; Perkin Elmer), 100 μL (20 μg/well) of a membrane fraction prepared from the rat EP4 expression cell and 50 μL of a test compound were mixed in a 96-well microplate (Sumitomo Bakelite), incubated at room temperature for 1 hour, filtered by suction on a UniFilter-96 GF/B (Perkin Elmer) using a FilterMate Harvester (Perkin Elmer), and then washed three times with 300 μL/well of a cooled assay buffer. Dilution of [^3H]PGE2 and the membrane fraction was carried out using an assay buffer (50 mM HEPES, 10 mM MgCl2), and dilution of the test compound and the unlabeled PGE2 was carried out using DMSO and an assay buffer. Further, in the case of the addition of a human serum albumin (HSA), dilution was carried out using an assay buffer containing 4% HSA (final concentration 1%; Sigma). The UniFilter-96 GF/B was treated preliminarily by washing twice with 200 μL/well of a cooled assay buffer. The UniFilter-96 GF/B after filtration was dried in a dryer overnight, 50 μL/well of MicroScint20 (Perkin Elmer) was added thereto, and then the radioactivity was measured using a TopCount (Perkin Elmer). For measurement of the non-specific binding, an unlabeled PGE2 (final concentration 1 μM; Cayman) was added. All of the measurements were carried out in duplicate, and the specific binding amount was determined by subtracting the non-specific binding amount from the total binding amount. The Ki value was calculated according to the general methods.
In the connection, Ex represents the below-described Example Compound number.

Chain of rat EP4 receptor (P43114 whole entry): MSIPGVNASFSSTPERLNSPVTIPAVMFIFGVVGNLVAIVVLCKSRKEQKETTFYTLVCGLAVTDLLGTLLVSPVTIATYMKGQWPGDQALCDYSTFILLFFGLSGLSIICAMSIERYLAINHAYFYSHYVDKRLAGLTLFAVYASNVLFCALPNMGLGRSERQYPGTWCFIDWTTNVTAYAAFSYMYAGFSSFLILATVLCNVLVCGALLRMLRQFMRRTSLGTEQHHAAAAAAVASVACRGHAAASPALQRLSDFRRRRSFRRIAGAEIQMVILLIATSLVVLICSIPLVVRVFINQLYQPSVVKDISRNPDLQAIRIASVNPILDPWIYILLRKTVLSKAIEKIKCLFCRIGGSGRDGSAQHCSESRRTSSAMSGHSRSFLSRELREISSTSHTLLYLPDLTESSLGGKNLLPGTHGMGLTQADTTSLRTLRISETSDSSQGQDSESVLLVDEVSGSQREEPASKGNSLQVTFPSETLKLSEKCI

| Ki (rat EP4 receptor) [nM] | melting point | Compound |
| --- | --- | --- |
| 1.4 |  | O=C(NC[C@H]1CC[C@H](C(=O)O)CC1)c1cc(C(F)(F)F)cc2ccn(Cc3ccc4ccccc4n3)c12 [Example 124] |
| 0.85 | 243 to 244 °C (dec.) | O=C(O)c1ccc(CNC(=O)c2cc(Cl)cc3ccn(Cc4ccc5ccccc5n4)c23)cc1 [Example 57] |
| 1.4 |  | O=C(NC[C@H]1CC[C@H](C(=O)O)CC1)c1cc(Cl)cc2ccn(Cc3ccc4ccccc4n3)c12 [Example 53] |
